Details of data set [1]: method as in PMID 17047689. As to conditions: humans; cited from earlier work.
Data set [2] has as its system acetic acid-induced writhing in rats. As to the kind of experiment: Acetic acid-induced writhing test. The format is in vivo, rat. The note with it: oral 5 min before i.p. acetic acid, counted over 25 min, crystalline NRG 100 mg/kg, NRG SD 30 or 100 mg/kg. As for the experimental part: The acetic acid-induced writhing test was performed according to the method of Pinho-Ribeiro et al. ([8]) with modifications. Rats aged 5–7 weeks were fasted for 16 h and divided into four groups of eight animals per group. The first group was intragastrically administered 10 mL/kg saline as a control. The second group was intragastrically administered crystalline NRG at 100 mg/kg BW. The third and fourth groups were intragastrically administered NRG SD equivalent to 30 mg/kg and 100 mg/kg BW NRG, respectively. After 5 min, each rat was intraperitoneally injected with 10 mL/kg of 0.8% (v/v) acetic acid in saline solution. Visceral pain intensity was quantified by enumerating the abdominal writhing within 0–25 min after the stimulus. The writhing response was characterized by the contraction of abdominal muscles and stretching of the hind limbs.
In general terms: In writhing tests, fewer writhes than in controls are read as antinociception.

The nature of data set [3]: Pharmacokinetics after oral administration. The class given is in vivo, rat. As to conditions: rats, equivalent to 100 mg/kg NRG. Here is the method: Each solution was suspended in ion-exchange water immediately prior to administration. […] The blood was stored in heparinized hematocrit tubes, and the plasma was isolated by centrifugation. […] The samples were incubated at 37°C overnight and extracted using the same method that was employed for those containing the unchanged NRG. LC-MS/MS analysis was performed using an ACQUITY UPLC system (Waters Corp., Milford, MA, United States) fitted with a cooling autosampler and a column oven with temperature control. Mass spectrometry was performed using a Waters Xevo TQ-S tandem quadrupole mass spectrometer (QQ-MS; Waters Corp.). Chromatographic separation was performed on an ACQUITY UPLC BEH C18 1.7 μm column (50 mm × 2.1 mm; Waters Corp.). […] Positive electrospray ionization was used to generate the parental ions. Multiple reaction monitoring, using precursor → product ion transitions of m/z 273.04 → 152.97 and m/z 255.10 → 198.99, was used to quantify NRG and daidzein (internal standard), respectively.

Data set [4] in a line: Pharmacokinetics after intravenous administration of serum containing unchanged NRG and NRG metabolites. The class given is in vivo, rat. The note with it: rats. As for the experimental part:
The same amount of NRG SD was intragastrically administered 5 min later. Blood was collected from the heart under isoflurane anesthesia 35 min after the first administration and stored at 4°C for several hours. Serum was then isolated by centrifugation and analyzed by liquid chromatography-tandem mass spectrometry (LC-MS/MS). […] Serum containing the unchanged NRG and NRG metabolites was administered via the tail vein at a dose of 500 μL/rat. […] The plasma was isolated by centrifugation. […] The mixture was centrifuged at 4°C, and 25 μL supernatant was collected and mixed with 75 μL of 30% (v/v) acetonitrile. […] The samples were incubated at 37°C overnight and extracted using the same method that was employed for those containing the unchanged NRG. LC-MS/MS analysis was performed using an ACQUITY UPLC system (Waters Corp., Milford, MA, United States) fitted with a cooling autosampler and a column oven with temperature control. Mass spectrometry was performed using a Waters Xevo TQ-S tandem quadrupole mass spectrometer (QQ-MS; Waters Corp.). Chromatographic separation was performed on an ACQUITY UPLC BEH C18 1.7 μm column (50 mm × 2.1 mm; Waters Corp.). […] The flow rate was set at 0.5 mL/min. The sample injection volume was 5 μL. […]. Positive electrospray ionization was used to generate the parental ions. Multiple reaction monitoring, using precursor → product ion transitions of m/z 273.04 → 152.97 and m/z 255.10 → 198.99, was used to quantify NRG and daidzein (internal standard), respectively.

The next data set is described as follows: Solubility test (HPLC). The format is physicochemical. As to conditions: aqueous buffer, thermodynamic from solid, dissolution test solution 2 (pH 6.8), 37°C, read-out: water solubility. Here is the method:
The prepared NRG SD (500 mg; equivalent to 50 mg NRG) was added to 2.5 mL dissolution test solution 2. The mixture was shaken vigorously at 37°C for 30 min and centrifuged ([15], [17]). The supernatant was then passed through a 0.2-μm filter and subjected to high-performance liquid chromatography (HPLC) analysis. The NRG concentration was determined using an HPLC system fitted with the LC-20AD pump and the SPD-M20 detector (Shimadzu Corp., Kyoto, Japan) ([15]). A reverse-phase column (CAPCELL PAK C18 MGII; 4.6 mm × 100 mm; 5 μm; Shiseido Co., Ltd., Tokyo, Japan) was operated at 40°C. The mobile phase consisted of a methanol-water (45:55, v/v) mixture with 0.05% (v/v) phosphoric acid, and it was ultrasonically degassed before use. The flow rate was set at 1 mL/min, and the detection wavelength was set at 289 nm. The sample injection volume was 10 μL. The HPLC was calibrated using standard methanol-water (50:50, v/v) NRG solutions in the concentration range of 0.125–40 μg/mL.

Data set [5] in a line: Dissolution test, Japanese Pharmacopoeia paddle method. The class given is physicochemical. As to conditions: test solution 1 (pH 1.2), after 120 min. Here is the method: The dissolution test was conducted using the paddle method described in the Japanese Pharmacopoeia ([26]). First, 900 mL dissolution test solution 1 or 2 was placed in the dissolution tester vessel and then 30 mg of crystalline NRG, 300 mg of PM, and 300 mg of SD were added to it. The temperature (37°C) and stirring rate (100 rpm) were maintained during the experiment. Samples were collected 2, 5, 10, 20, 30, 45, 60, 90, and 120 min after sample addition. The solutions were passed through 0.2-μm filters, and the filtrates were subjected to HPLC analysis.

Results on one compound are retold here after publication PMC9093646, “Physicochemical and Biochemical Evaluation of Amorphous Solid Dispersion of Naringenin Prepared Using Hot-Melt Extrusion” (Frontiers in Nutrition, 2022).

Values after ≈ are worked out from the molar mass of the structure shown.

As a reminder, the bioavailability is the share of a dose that reaches the circulation, judged against a reference dose that is usually intravenous. One may read the AUC(0-inf) as total exposure, with the tail of the curve extrapolated. What is called Cmax is the highest concentration seen after dosing. By Tmax is commonly meant the time from dosing to the highest level. As a reminder, the clearance is a measure of how efficiently the substance is removed, as volume per time. For orientation: Vd means a proportionality between amount in the body and measured concentration, not a real space. For orientation: solubility means the dissolved amount per volume that the medium holds. Take `O=C1C[C@@H](c2ccc(O)cc2)Oc2cc(O)cc(O)c21` [NRG, Naringenin]: the “cumulative urinary excretion rate relative to the oral NRG dose” value in data set [1] is recorded as approximately 5.8%. Moreover, in data set [2], the “number of writhings compared to the control” value is reported as “significantly decreased”. For the same compound, the AUC(0-t) came out at 30 ± 10 ng·h/mL in data set [3] (rat, plasma, po, 100 mg/kg, unchanged NRG in plasma, read-out: AUC0–1 h); 740 ± 240 ng·h/mL in data set [3] (rat, plasma, po, 100 mg/kg, unchanged NRG in plasma, read-out: AUC0–t); 120 ± 20 ng·h/mL in data set [4] (plasma, iv, serum 500 μL/rat, two-compartment model). In addition, the bioavailability in data set [3] (rat, plasma, po, 100 mg/kg, unchanged NRG, read-out: F, absolute bioavailability) was approximately 0.5%. Further, the area under the curve AUC(0-inf) in data set [3] (rat, unchanged NRG in plasma) was determined as 740 ± 240 ng·h/mL; in data set [4] (plasma, iv, serum with 34.8 μg/mL unchanged NRG and 134.5 μg/mL NRG metabolites, 500 μL/rat, two-compartment model) it was 130 ± 20 ng·h/mL. In addition, the Cmax in data set [3] (rat, unchanged NRG in plasma) was 130 ± 10 ng/mL. Besides, the Tmax in data set [3] (rat, unchanged NRG in plasma) was determined as 4 ± 1.26 h. Besides, the “F, absolute bioavailability” value in data set [3] (unchanged NRG) worked out at 0.52 ± 0.17%. In addition, the clearance in data set [4] (plasma, iv, i.v., serum 500 μL/rat, two-compartment model, read-out: CL, total body clearance (converted)) is 2.67 mL/min. For the same compound, in data set [4] (plasma, iv, i.v., serum 500 μL/rat, two-compartment model, read-out: Vd, volume of distribution), the Vd was 0.19 ± 0.08 L/kg. For the same compound, in data set [4] (plasma, iv, i.v., serum 500 μL/rat, two-compartment model, read-out: ke, elimination rate constant (converted)), the k el was 0.00509 s⁻¹. The half-life in data set [4] (plasma, iv, i.v., serum 500 μL/rat, two-compartment model, read-out: t1/2, elimination half-life time (converted)) was 0.99 ± 0.33 h. Besides, the “distribution volume as share of the body weight” value in data set [4] (i.v.) is approximately 20%. The solubility at 30 min in the data set “Solubility test (HPLC)” was found to be 70 µg/mL (≈ 257 µM). Besides, in data set [5], the “dissolved NRG” value is 40%.
